The term GI50 denotes the concentration at which growth is held to half of that of the control. Low values mean greater sensitivity of the cells, high ones lower sensitivity of the cells.

Holding throughout (format): functional
One assay deals with A549. The experiment in a line: Cytotoxicity against human A549 cells. The conditions noted are these: for GI50: A549; for CC50: A549, read-out: pLC50 (converted); for TGI: A549, read-out: pTGI (converted).
For another assay, the system named is NCI-H522. As to the kind of experiment: Cytotoxicity against human NCI-H522 cells. The conditions noted are these: for TGI: read-out: pTGI (converted).
The next assay has as its system NCI-H23. The experiment in a line: Cytotoxicity against human NCI-H23 cells. The conditions noted are these: for CC50: read-out: pLC50 (the source's name) (converted); for TGI: read-out: pTGI (converted).

The structures appear in SMILES notation.

Consider `O=C(O)c1ccccn1` [2-PICOLINIC ACID], for which, in the assay on A549, the 50% growth inhibitory concentration (GI50) was 65.2 µM, the CC50 is more than 100 µM and the TGI is 82 µM. Besides, in the assay with NCI-H522, the 50% growth inhibitory concentration (GI50) was 0.693 µM and the TGI was 1.05 µM. In the assay with NCI-H23, the 50% growth inhibitory concentration (GI50) is 61.8 µM, the CC50 was 88.5 µM and the TGI was 74 µM.
Consider `C[C@@H]1C[C@@H]([C@H](O)CC2CC(=O)NC(=O)C2)C(=O)[C@@H](C)C1` [CYCLOHEXIMIDE], for which the GI50 in the assay on A549, in the assay on NCI-H522 and in the assay with NCI-H23 was more than 100 µM in each case. The CC50 with A549 and in the assay with NCI-H23 was more than 100 µM in each case. Moreover, the TGI in the assay with A549, in the assay on NCI-H522 and in the assay on NCI-H23 was more than 100 µM each time.

For the origin of these results see ChEMBL document CHEMBL1157139, “A structural analysis of the differential cytotoxicity of chemicals in the NCI-60 cancer cell lines” (2008).
